Patent US20130004966A1, “STRUCTURE OF CYTOKININS AND CYTOKININ RECEPTORS, AND MODULATION OF CYTOKININ SIGNALING” (Salk Institute for Biological Studies (027731), priority 2011, published 2013)

Legend:
[1] = Crystallization of purified AHK4 in the presence of tZr (difference density in ligand binding pocket); format: physicochemical; conditions: no difference density for the ribose portion of tZr in the crystal complex
Description: Protein Expression and Purification. A synthetic gene comprising the sensor domain of AHK4 (residues 126-395, numbering in accordance with the short splice-variant of AHK4) was codon-optimised for expression in E. coli (Geneart, Regensburg, Germany). The Ncol/Notl digested synthetic fragment was inserted into a modified pET21d (Novagen) plasmid providing N-terminal 7xHis and Strep II affinity tags and expressed as a SUMO fusion protein in E. coli Origami (DE3) cells (Novagen). Cells grown to an OD600nm of 0.8 were induced with 0.3 mM isopropyl-β-D-thiogalactopyranoside in Terrific Broth at 16° C. for 22 h. Cells were collected by centrifugation at 4,500 xg for 30 min, washed in PBS buffer, incubated with 100 mg lysozyme for 1 h at room temperature and snap-frozen in liquid nitrogen. For protein purification cells were thawn in buffer A (25 mM Tris, pH 7.6, 500 mM NaCl, 15 mM Imidazole and, if applicable, 0.1 mM of the respective cytokinin), lysed by sonication, and centrifuged at 75,000 xg for 90 min. The supernatant was incubated in batch with 5 mL HIS-Select Cobalt Affinity Gel (Sigma), washed with buffer A and eluted in buffer A supplemented with 200 mM imidazole. The fusion protein was dialysed against buffer B (25 mM Tris, pH 8.0, 300 mM NaCl, 1 mM EDTA) and then loaded onto a 1 mL Strep-Tactin Superflow high capacity cartridge (IBA, Gottingen, Germany). […]

[2] = target: T1, AHK4 (Arabidopsis thaliana, UniProt Q9C5U0); conditions: literature result, Romanov et al., J. Exp. Bot. 57:4051-4058 (2006); cited from earlier work
T1 construct: host or cells: E. coli
T1 sequence (Q9C5U0 24-1080 limits assumed): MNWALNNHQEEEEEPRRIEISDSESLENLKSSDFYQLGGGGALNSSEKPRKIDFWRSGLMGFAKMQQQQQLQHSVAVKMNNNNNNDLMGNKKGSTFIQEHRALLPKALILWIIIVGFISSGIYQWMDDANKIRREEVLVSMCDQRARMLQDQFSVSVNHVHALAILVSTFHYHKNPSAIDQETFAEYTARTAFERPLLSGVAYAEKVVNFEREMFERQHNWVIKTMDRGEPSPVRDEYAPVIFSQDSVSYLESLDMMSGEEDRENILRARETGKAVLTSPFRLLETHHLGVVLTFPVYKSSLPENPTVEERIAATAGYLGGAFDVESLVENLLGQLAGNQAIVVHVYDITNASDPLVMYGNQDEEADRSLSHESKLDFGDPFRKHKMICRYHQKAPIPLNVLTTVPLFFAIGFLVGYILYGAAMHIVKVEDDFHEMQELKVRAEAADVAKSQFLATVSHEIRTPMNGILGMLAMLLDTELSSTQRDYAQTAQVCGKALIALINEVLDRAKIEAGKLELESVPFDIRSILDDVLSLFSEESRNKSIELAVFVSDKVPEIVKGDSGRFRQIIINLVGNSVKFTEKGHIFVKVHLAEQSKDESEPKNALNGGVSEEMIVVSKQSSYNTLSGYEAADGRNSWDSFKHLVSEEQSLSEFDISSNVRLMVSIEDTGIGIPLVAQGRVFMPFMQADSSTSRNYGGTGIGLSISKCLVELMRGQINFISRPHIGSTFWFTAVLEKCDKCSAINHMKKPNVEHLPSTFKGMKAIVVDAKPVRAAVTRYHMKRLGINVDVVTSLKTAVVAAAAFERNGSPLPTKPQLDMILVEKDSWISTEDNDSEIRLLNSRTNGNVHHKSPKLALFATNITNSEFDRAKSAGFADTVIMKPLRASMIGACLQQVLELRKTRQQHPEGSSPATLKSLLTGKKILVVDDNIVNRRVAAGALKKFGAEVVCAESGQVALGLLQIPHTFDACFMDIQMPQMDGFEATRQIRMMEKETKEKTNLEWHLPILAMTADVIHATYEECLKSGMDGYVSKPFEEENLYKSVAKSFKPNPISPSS

C/C(=C\CNc1ncnc2c1ncn2[C@@H]1O[C@H](CO)[C@@H](O)[C@H]1O)CO (relative stereo) [tZr, trans-zeatin riboside]
stability of ligand during purification with AHK4 [1]: underwent hydrolysis during purification | binding affinity to AHK4 [2]: high affinity
